Like-named read-outs stand apart in the source and are kept apart here.
Assays:
[1] = system: hypertension rats induced by Angiotensin II; experiment: Effect on the hypertension rats induced by angiotensin II (DSI telemetry); type: in vivo, Sprague-Dawley rats; conditions: for The average MBP over 23 hours before administration: baseline before single intragastric dose; for The average MBP over 23 hours before administration / Average blood pressure 1 hr after administration / Average blood pressure 2 hr after administration / Average blood pressure 3 hr before administration / Average blood pressure 7 hr after administration / Average blood pressure 13 hr after administration / Average blood pressure 13 hr before administration / Average blood pressure 18 hr after administration / Average blood pressure 23 hr after administration / Average blood pressure 23 hr before administration / The average MBP over 23 hours after administration: Mean±S.E., N=8; for Average ratio of reduction of the average blood pressure: average value after administration over 23 hours
Method: The Effect on the Hypertension Rats Induced by Angiotensin II
The dosage of angiotensin II was determined according to literature (Harrison-Bernard L M, Zhuo J, Kobori H, Ohishi M, Navar L G. Intrarenal A T (1) receptor and ACE binding in ANG II-induced hypertensive rats. Am. J. Physiol. Renal Physiol. 2002 January; 282(1):F19-25; Diz D I, Baer P G, Nasjletti A. Angiotensin II-induced hypertension in the rat. Effects on the plasma concentration, renal excretion, and tissue release of prostaglandins. J. Clin. Invest. 1983 August; 72(2):466-77.). Angiotensin II was precisely weighed and diluted with sterile saline up to a concentration of 14.4 mg/mL, then mixed slightly until clear and stored at −20° C. in the dark.
HS-10149 suspension: the compounds were precisely weighed and diluted with 2% of Ceolus suspension in a gradient of 0.20 mg/ml, 0.06 mg/ml, 0.02 mg/ml, then the suspension was stirred until dissolution and stored at 4° C. in the dark. The sample was warmed to room temperature in advance before administration and mixed to uniform.
The animals with required weight (female: 230-250 g, male: 200-220 g) were selected after adaptation for one week. The male rats were subjected to combined anesthesia of ketamine (44 mg/kg, im.) and 2% pentobarbital sodium solution (30 mg/kg, ip), and the female rates were narcotized with 2% pentobarbital sodium solution (40 mg/kg, ip). The implants were implanted on day 0 and the blood pressure was continuously monitored for 24 hours from the 7th day after implantation of a micro osmotic pump. The animals with mean systolic blood pressure (MSBP) up to 140 mmHg over 24 hours were considered as standard screening animals. The qualified animals were used in the test and the unqualified animals were excluded.
The qualified animals were divided into groups according to their MSBP over 24 hours, 8 animals for each group with half female and half male. 8 animals for each group met the requirement of statistical tests and the requirement of pharmacodynamics guiding principles.
After grouping, the solvent control, low, middle and high dosage animal groups were intragastrically administered with 2% Ceolus, 0.1 mg/kg, 0.3 mg/kg and 1.0 mg/kg of HS-10149, respectively. The administration time was 10:00 and 10:30 a.m. and the administration volume was 5 mL/kg.
(4) Experimental Process Healthy animals were implanted with implants at day 0 and a micro osmotic pump was implanted subcutaneously at day 8. The blood pressure was monitored for 24 hours from the 15th day and the animals with qualified blood pressure were selected to test. Positive drug or test sample was administered once at 10:00 a.m. on the 16th day and the blood pressure was monitored after administration for 24 hours. At the end of the test, the animals were sacrificed by excessive carbon dioxide. 5. Handling and Analysis of Data
The data were recorded every 5 s automatically by the DSI remote sensing pressure measuring device. The mean value calculated within an hour as unit by the software was considered as initial data.

Beagle dog = type: in vivo; conditions: for Clinical observations: intragastric
Description: Acute Toxicity Test Research for Beagle Dog
Object: Approximate lethal dose method was introduced in the test to observe the acute toxicity response of the animals by intragastric administration of example 2 or Azilsartan medoxomil potassium salt to Beagle dogs to study the toxicity situation of example 2 after administration and compare the toxicity of example 2 and Azilsartan medoxomil potassium salt, which can provide reference confirmation for the evaluation of toxicity of example 2.
Method (approximate lethal dose method): 6 Beagle dogs were used, 3 for each of example 2 group and Azilsartan medoxomil potassium salt group. The administration dosage was 0.09, 0.13, 0.19, 0.28, 0.42, 0.63, 0.95, 1.42, 2.13, 3.20 g·kg^−1 respectively, wherein 3.20 g·kg^−1 was the maximum administration dosage (corresponding to 1081 times the given dosage for the clinical patient). The blood was collected before administration and on days 2, 7, and 14 after administration to test the corresponding biochemical indicators. Electrocardiogram, body weight, and body temperature were determined before administration and on days 7 and 14 after administration.

[2] = rat, in vivo, po
Method: Drug Metabolism Test of Sprague Dawley (SD) Rats after Administration
Twelve SD rats that weighed 200-250 g were randomly divided into two groups with each group having 6 rats, half male and half female. […] 0.5 ml blood were collected from orbit before administration and at 0.5, 1.0, 2.0, 3.0, 4.0, 5.0, 7.0, 10, 24 and 48 h after administration. Plasma concentration of Azilsartan (TAK-536), M1 (product of decarboxylation of Azilsartan) and M2 (product of O-dealkylation) was measured.

[3] = Beagle dog, intragastric administration
[4] = all of the animals in the group, 1.42-3.20 g·kg^−1

CCOc1nc2cccc(C(=O)O)c2n1Cc1ccc(-c2ccccc2-c2noc(=O)[nH]2)cc1.CCOc1nc2cccc(C(=O)[O-])c2n1Cc1ccc(-c2ccccc2-c2noc(=O)[nH]2)cc1.C[N+](C)(C)CCO [Example 2]
The average MBP over 23 hours before administration ([1]; 0.1 mg/kg group): 146 ± 5 mmHg | Average blood pressure 1 hr after administration ([1]; 0.1 mg/kg group): 128 ± 8 | Average blood pressure 2 hr after administration ([1]; 0.1 mg/kg group): 102 ± 9 | Average blood pressure 3 hr before administration ([1]; 0.1 mg/kg group): 128 ± 9 | Average blood pressure 7 hr after administration ([1]; 0.1 mg/kg group): 91 ± 5 | Average blood pressure 13 hr after administration ([1]; 0.1 mg/kg group): 110 ± 3 | Average blood pressure 13 hr before administration ([1]; 0.1 mg/kg group): 144 ± 7 | Average blood pressure 18 hr after administration ([1]; 0.1 mg/kg group): 114 ± 3 | Average blood pressure 23 hr after administration ([1]; 0.1 mg/kg group): 109 ± 5 | Average blood pressure 23 hr before administration ([1]; 0.1 mg/kg group): 142 ± 8 | The average MBP over 23 hours after administration ([1]; 0.1 mg/kg single intragastric dose): 110 ± 3 mmHg | Antihypertension effect in the hypertension rat models induced by angiotensin II ([1]; 0.1 mg/kg to 1.0 mg/kg): significant antihypertension effect | Average ratio of reduction of the average blood pressure ([1]; 0.1 mg/kg): 24.7% | The average MBP over 23 hours before administration ([1]; 0.3 mg/kg group): 145 ± 5 mmHg | Average blood pressure 1 hr after administration ([1]; 0.3 mg/kg group): 119 ± 11 | Average blood pressure 2 hr after administration ([1]; 0.3 mg/kg group): 83 ± 6 | Average blood pressure 3 hr before administration ([1]; 0.3 mg/kg group): 124 ± 10 | Average blood pressure 7 hr after administration ([1]; 0.3 mg/kg group): 77 ± 4 | Average blood pressure 13 hr after administration ([1]; 0.3 mg/kg group): 91 ± 8 | Average blood pressure 13 hr before administration ([1]; 0.3 mg/kg group): 150 ± 6 | Average blood pressure 18 hr after administration ([1]; 0.3 mg/kg group): 108 ± 10 | Average blood pressure 23 hr after administration ([1]; 0.3 mg/kg group): 93 ± 3 | Average blood pressure 23 hr before administration ([1]; 0.3 mg/kg group): 147 ± 8 | The average MBP over 23 hours after administration ([1]; 0.3 mg/kg single intragastric dose): 88 ± 7 mmHg | Average ratio of reduction of the average blood pressure ([1]; 0.3 mg/kg): 39.3% | The average MBP over 23 hours before administration ([1]; 1.0 mg/kg group): 147 ± 5 mmHg | Average blood pressure 1 hr after administration ([1]; 1.0 mg/kg group): 118 ± 6 | Average blood pressure 2 hr after administration ([1]; 1.0 mg/kg group): 85 ± 5 | Average blood pressure 3 hr before administration ([1]; 1.0 mg/kg group): 129 ± 9 | Average blood pressure 7 hr after administration ([1]; 1.0 mg/kg group): 74 ± 4 | Average blood pressure 13 hr after administration ([1]; 1.0 mg/kg group): 76 ± 6 | Average blood pressure 13 hr before administration ([1]; 1.0 mg/kg group): 149 ± 7 | Average blood pressure 18 hr after administration ([1]; 1.0 mg/kg group): 80 ± 5 | Average blood pressure 23 hr after administration ([1]; 1.0 mg/kg group): 81 ± 5 | Average blood pressure 23 hr before administration ([1]; 1.0 mg/kg group): 146 ± 9 | The average MBP over 23 hours after administration ([1]; 1.0 mg/kg single intragastric dose): 81 ± 5 mmHg | Average ratio of reduction of the average blood pressure ([1]; 1.0 mg/kg): 44.9% | Minimum effective dose ([1]; single intragastric administration): 0.1 mg/kg | Duration of the effect after single administration ([1]; single intragastric administration, 0.1-1.0 mg/kg): about 23 hours | Dissection findings (Beagle dog; 1.42 g·kg^−1 dosage group): the stomach was filled and contained amounts of particle food; the cardiac mucosa was red and showed sporadic red dot; other viscera did not show anomalies | Clinical observations (Beagle dog; 1.42 g·kg^−1 dosage group, Beagle dog): liquid stools and less moving, moving reduction on day 2 after administration, the moving recovered to normal on day 3 and no abnormality was observed after day 3 | Clinical observations (Beagle dog; 2.13 g·kg^−1 dosage group, Beagle dog): on the day of administration no abnormality was observed and the animals showed vomit, moving reduction on day 2 after administration, loose stools and moving recovered on day 3, and the excreta recovered to normal on day 4 and no abnormality observed after day 4 | Dissection findings (Beagle dog; 2.13 g·kg^−1 dosage group, day 15): the stomach was filled and contained amounts of particle food; the cardiac mucosa was red and showed sporadic red dot; other viscera did not show anomalies | Blood biochemical indicators (Beagle dog; 3.20 g·kg^−1 dosage): ALT of dogs with 3.20 g·kg^−1 dosage was increased on day 2 and recovered to normal on day 7 | Fib (Beagle dog; 3.20 g·kg^−1 dosage): increased significantly on day 2 after administration | Histopathology (HE, light microscope) (Beagle dog; 3.20 g·kg^−1 dosage group): did not show obvious anomalies | Clinical observations (Beagle dog; 3.20 g·kg^−1 dosage group, Beagle dog): loose stools, liquid stools, vomit until the end of the observation and showed liquid stools, moving reduction on day 2 after administration, showed loose stools on day 3 and the moving recovered, the excreta recovered to normal on day 4 and no abnormality observed after that | Systolic blood pressure and diastolic blood pressure (Beagle dog; 5 animals of the two groups together): reduced more or less on day 2 after administration | Acute toxicity, comparison (Beagle dog; [3]): lower than that of Azilsartan medoxomil potassium salt | Approximate lethal dose (Beagle dog; [3]): more than 3.20 g·kg^−1 | Body temperature (Beagle dog; [4]): no abnormality on day 7 after administration | Body weight (Beagle dog; [4]): decreased on day 7 after administration compared with pre-administration | Electrocardiogram and haematological indicators (Beagle dog; [4]): not abnormal on day 7 after administration | PT values (Beagle dog; all the animals of the group, after vs. pre-administration): reduced significantly after administration compared to pre-administration | Blood biochemical indicators (Beagle dog; all the dogs of the group (1.42, 2.13, 3.20 g·kg^−1)): CRE, UREA and UA of all the dogs administered Example 2 compound were increased significantly on day 2 after administration, the CRE and UA increased significantly on day 7 after administration, and they recovered to normal on day 14 | Increase of AUC of Azilsartan acid in the plasma [2]: 70% | Increase of Cmax of Azilsartan acid in the plasma [2]: 98%
